Literature values, collected in patent publication US20120171270A1, “DUAL ACTION ORGANIC FORMULATION TO CONTROL TWO STAGES OF INSECT PESTS” (priority 2010, published 2012).

Tests used:
gypsy moth larvae [1] = tested on: gypsy moth larvae
gypsy moth larvae [2] = conditions: 16 hours after a 2 minute crawling exposure to glass coated with a 4 mg/litre spinosad solution
[3] = tested on: mammalian and avian species; conditions: in vivo
gypsy moth larvae [4] = conditions: 3-day exposure; 13-day evaluation; 2nd instar larvae; red oak leaf disks

| Compound | mating in low-density populations at lower doses (gypsy moth; 15, 6, and 3 grams per acre) | mating in low-density populations (gypsy moth; 30 grams per acre) | population reduction at low application rate (gypsy moth larvae [1]; application rate of 0.75 mg/litre) | concentrations that effectively controlled larvae (gypsy moth larvae [1]; applied to foliage to run-off, 2nd instar larvae, laboratory and field) [mg/L] | larval population reduction (gypsy moth larvae [1]; at 3 to 50 mg/litre applied to run-off) [%] | toxicity in the laboratory, efficacy and persistence in the field versus permethrin (gypsy moth larvae [1]; in vivo) | treated larvae paralyzed (gypsy moth larvae [2]) [%] | toxicity to mammalian and avian species [3] | LC50 (gypsy moth larvae [4]) [mg AI/cm2] |
| --- | --- | --- | --- | --- | --- | --- | --- | --- | --- |
| CCCCCCCCCC[C@H]1O[C@H]1CCCCC(C)C [disparlure] | can be suppressed | suppresses mating | – | – | – | – | – | – | – |
| spinosad | – | – | large population reductions | 3 ± 50 | 95±100 | comparable to those achieved with permethrin | 50 | little or no toxicity | 0.0015 |
